The source of these data is patent US20060171911A1, “Diiodomethyl-p-tolylsulfone as a particulate dispersion in a liquid solvent in combination with an anti-dandruff active” (priority 2005, published 2006).

Series [1] relates to fungal. The settings on record: cited from earlier work.
The conditions of series [2]: cited from earlier work.
The test system of series [3] is fungal. Description: Anti-fungal activity, dispersed particle form vs. dissolved in an effective solvent.

SMILES strings stand for the structures.

Turning to `Cc1ccc(S(=O)(=O)C(I)I)cc1` [diiodomethyl-p-tolylsulfone, Benzene, 1-[(diiodomethyl)sulfonyl]-4-methyl-(9CI)], the “pH range over which effective” value in series [1] is recorded as 2-11 pH. Moreover, the water solubility result in series [2] was “less than 5 ppm”. Besides, the “activity retained in dispersed particle form vs. dissolved in an effective solvent” value in series [3] was “about 100%”.
